Assay results from patent US10278942B2 (PELOTON THERAPEUTICS, INC., priority 2015, dated 2019).
Read-outs that look alike come from different tables or passages of the source.

What was measured:
[1] = target: T1, HIF-2α HIS TAG-PASB Domain (Homo sapiens, UniProt Q99814); assay: HIF-2α Scintillation Proximity Assay (SPA); assay type: binding
T1 construct: 100 nM HIF-2α HIS TAG-PASB Domain
Procedure, shortened: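 IC50 values rest on percent inhibition, where the sample signal is scaled between high and low controls. Wells contain about 100 μL: compound dispensed as 2 μL of DMSO solution, 88 μL protein-probe mix and 10 μL of beads.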

786-O-Hif-Luc cells = assay: Luciferase Assay (HIF responsive elements reporter); settings: read-out: Mean Luciferase EC50 (nM), 786-O-Hif-Luc cells
Procedure: A pool of infected cells were then selected against 2 μg/mL of puromycin (P8833, Sigma) for 10 days followed by limited dilution to select single clones. […] Each concentration was tested in triplicate. After about 24 hours, luciferase activity was determined using ONE-Glo Luciferase Assay Reagent (E6110, Promega) following the manufacturer's recommended procedure. EC50 were calculated using Dotmatics software.

[2] = read-out: Scintillation Proximity Assay IC50

T1 sequence (Q99814 240-350 limits assumed): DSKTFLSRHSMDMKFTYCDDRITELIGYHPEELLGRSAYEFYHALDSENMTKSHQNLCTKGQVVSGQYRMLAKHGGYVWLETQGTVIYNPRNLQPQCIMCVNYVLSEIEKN

IC50 [1, 2] | EC50 (786-O-Hif-Luc cells) | IC50 ([1]; Scintillation Proximity Assay IC50 (nM)) | SMILES
> 1000 nM | > 1000 nM |  | CS(=O)(=O)N[C@H]1C[C@@H](Oc2ccc(S(=O)(=O)C(F)(F)F)c3c2CC(F)(F)[C@H]3O)C1 [Compound 726]
50 to 249 nM | 250 to 1000 nM |  | O=S(=O)(c1ccc(OCc2ccccc2)c2c1C(O)C(F)(F)C2)C(F)(F)F (centres unmarked) [Compound 663]
> 1000 nM | > 1000 nM |  | CS(=O)(=O)c1ccc(OC[C@@H]2C[C@@H]2C#N)c2c1[C@H](O)C(F)(F)[C@@H]2F [Compound 764]
 | > 1000 nM | 250 to 1000 nM | O=S(=O)(c1ccc(Oc2cc(F)cc(Cl)c2)c(Br)c1)C(F)F [Compound 131]
< 50 nM | 50 to 249 nM |  | N#Cc1cc(F)cc(Oc2ccc(S(=O)(=O)CF)c3c2CC[C@H]3O)c1 [Compound 62]
< 50 nM | 250 to 1000 nM |  | Cc1cc(Oc2ccc(S(=O)(=O)C(F)F)c3c2CC(F)(F)[C@H]3O)ccc1F [Compound 198]
250 to 1000 nM | 250 to 1000 nM |  | N#Cc1cc(F)cc(Nc2ccc(S(=O)(=O)C(F)(F)F)c3c2CCC3O)c1 (centres unmarked) [Compound 505]
> 1000 nM | > 1000 nM |  | CS(=O)(=O)c1ccc(O[C@H]2C[C@](C)(C#N)C2)c2c1[C@H](O)C(F)(F)[C@@H]2F [Compound 767]
> 1000 nM | > 1000 nM |  | C[S+]([O-])c1ccc(Oc2cc(F)cc(C#N)c2)c2c1[C@H](O)C(F)(F)C2 (some centres unmarked) [Compound 272]
250 to 1000 nM | 250 to 1000 nM |  | O=S(=O)(c1ccc(Oc2cccc3[nH]ncc23)c2c1C(O)C(F)(F)C2)C(F)(F)F (centres unmarked) [Compound 243]
< 50 nM | > 1000 nM |  | O=S(=O)(c1ccc(-c2cccc(Cl)c2)c2c1[C@H](O)C(F)(F)C2)C(F)(F)F [Compound 485, (S)-4-(3-chlorophenyl)-2,2-difluoro-7-((trifluoromethyl)sulfonyl)-2,3-dihydro-1H-inden-1-ol]
> 1000 nM | > 1000 nM |  | N#Cc1cc(F)cc(Oc2ccc(S(=O)(=O)C(F)(F)F)c3c2[C@@H](N)C[C@H]3O)c1 [Compound 279]
50 to 249 nM | > 1000 nM |  | COc1cc(F)cc(Oc2ccc3c(c2C#N)[C@@H](O)C(F)(F)S3(=O)=O)c1 [Compound 427]
< 50 nM | 250 to 1000 nM |  | CS(=O)(=O)c1ccc(OC2CC(F)(F)C2)c2c1[C@H](O)[C@H](F)C2 [Compound 585]
250 to 1000 nM | 50 to 249 nM |  | N#Cc1cncc(Oc2ccc(S(=O)(=O)C(F)F)c3c2CC(F)(F)[C@H]3O)c1 [Compound 27]
250 to 1000 nM | > 1000 nM |  | CS(=O)(=O)c1ccc(Oc2cc(F)cc(C#N)c2)c(C#N)c1Cl [Compound 152]
50 to 249 nM | 250 to 1000 nM |  | C[C@]1(C#N)C[C@H](Oc2ccc(S(=O)(=O)C(F)(F)F)c3c2CC(F)(F)[C@H]3O)C1 [Compound 788]
250 to 1000 nM | > 1000 nM |  | O=S(=O)(c1ccc(OCCCO)c2c1C(O)C(F)(F)C2)C(F)(F)F (centres unmarked) [Compound 612]
50 to 249 nM | 50 to 249 nM |  | OC1c2c(C(F)(F)F)ccc(OCC(F)F)c2CC1(F)F (centres unmarked) [Compound 686]
250 to 1000 nM | 250 to 1000 nM |  | O=S(=O)(c1ccc(O[C@H]2C[C@H](O)C2)c2c1C(O)C(F)(F)C2)C(F)(F)F (some centres unmarked) [Compound 644]
> 1000 nM | > 1000 nM |  | N#Cc1cnn(Cc2ccc(S(=O)(=O)C(F)(F)F)c3c2CC(F)(F)[C@H]3O)c1 [Compound 538]
50 to 249 nM | 250 to 1000 nM |  | O=S(=O)(CF)c1ccc(Oc2cccc3sccc23)c2c1C(O)C(F)(F)C2 (centres unmarked) [Compound 242]
< 50 nM | 50 to 249 nM |  | O=S(=O)(CF)c1ccc(Oc2cc(F)cc(F)c2)c2c1C(O)CC2 (centres unmarked) [Compound 59]
> 1000 nM | > 1000 nM |  | CS(=O)(=O)c1ccc(Oc2cc(F)cc(C#N)c2)c2c1[C@H](O)[C@H](F)[C@@H]2O [Compound 296]
< 50 nM | > 1000 nM |  | Cc1cncc(Oc2ccc(S(C)(=O)=O)c3c2CC(F)(F)[C@H]3O)n1 [Compound 201]
50 to 249 nM | 250 to 1000 nM |  | N#Cc1c(Oc2cc(F)cc(F)c2)ccc2c1[C@@H](O)CS2(=O)=O [Compound 414]

IC50 [1, 2] | EC50 (786-O-Hif-Luc cells) | IC50 ([1]; Scintillation Proximity Assay IC50 (nM)) | SMILES
50 to 249 nM | 250 to 1000 nM |  | O=S1(=O)CC(O)c2c1ccc(Oc1cc(F)cc(Cl)c1)c2C(F)F (centres unmarked) [Compound 361]
< 50 nM | 250 to 1000 nM |  | O=S(=O)(c1ccc(Oc2cc(F)cc(F)c2)c(Cl)c1CO)C(F)F [Compound 168]
250 to 1000 nM | > 1000 nM |  | O=S(=O)(c1ccc(-c2ccccc2)c2c1[C@H](O)C(F)(F)C2)C(F)(F)F [Compound 487, (S)-2,2-difluoro-4-phenyl-7-((trifluoromethyl)sulfonyl)-2,3-dihydro-1H-inden-1-ol]
250 to 1000 nM | 250 to 1000 nM |  | N#Cc1cc(F)cc(Oc2ccc3c(c2F)C(O)C(F)(F)S3(=O)=O)c1 (centres unmarked) [Compound 434]
250 to 1000 nM | > 1000 nM |  | N#Cc1cccc(Oc2ccc(S(=O)(=O)C(F)F)c(C#N)c2Cl)c1 [Compound 40]
250 to 1000 nM | > 1000 nM |  | CS(=O)(=O)c1ccc(OC[C@H]2C[C@@H]2C#N)c2c1[C@H](O)C(F)(F)[C@@H]2F [Compound 770]
50 to 249 nM | 250 to 1000 nM |  | CO[C@H]1C[C@H](Oc2ccc(S(=O)(=O)C(F)(F)F)c3c2CC(F)(F)[C@H]3O)C1 [Compound 714]
50 to 249 nM | 250 to 1000 nM |  | Cc1c(Oc2cc(F)cc(C#N)c2)ccc(S(=O)(=O)C(F)(F)F)c1C=O [Compound 145]
250 to 1000 nM | 250 to 1000 nM |  | CC1(COc2ccc(S(=O)(=O)C(F)(F)F)c3c2CC(F)(F)C3O)COC1 (centres unmarked) [Compound 622]
50 to 249 nM | > 1000 nM |  | NC1c2cc(Oc3cc(F)cc(Cl)c3)ccc2S(=O)(=O)C1(F)F (centres unmarked) [Compound 358]
< 50 nM | < 50 nM |  | O=S(=O)(c1ccc(OC2CCC2)c2c1C(O)C(F)(F)C2)C(F)(F)F (centres unmarked) [Compound 602]
50 to 249 nM | 250 to 1000 nM |  | N#Cc1cc(Oc2ccc3c(c2C(F)F)[C@@H](O)C(F)(F)S3(=O)=O)ccc1F [Compound 437]
> 1000 nM | > 1000 nM |  | N#Cc1cncc(-c2ccc(S(=O)(=O)C(F)(F)F)c3c2CC(F)(F)[C@H]3O)c1 [Compound 570]
250 to 1000 nM | > 1000 nM |  | O=S(=O)(c1ccc(C2=CC(O)CCC2)c2c1[C@H](O)C(F)(F)C2)C(F)(F)F (stereo partly drawn) [Compound 481, (1S)-2,2-difluoro-4-(3-hydroxycyclohex-1-en-1-yl)-7-((trifluoromethyl)sulfonyl)-2,3-dihydro-1H-inden-1-ol]
< 50 nM | > 1000 nM |  | CS(=O)(=O)c1ccc(O[C@H]2C[C@](F)(C#N)C2)c2c1[C@H](O)C(F)(F)[C@@H]2F [Compound 741]
50 to 249 nM | 50 to 249 nM |  | N#Cc1cncc(Nc2ccc(S(=O)(=O)C(F)(F)F)c3c2CC(F)(F)[C@H]3O)c1 [Compound 488, (S)-5-((2,2-difluoro-1-hydroxy-7-((trifluoromethyl)sulfonyl)-2,3-dihydro-1H-inden-4-yl)amino)nicotinonitrile]
< 50 nM | 250 to 1000 nM |  | COCCCOc1ccc(S(=O)(=O)C(F)(F)F)c2c1CC(F)(F)C2O (centres unmarked) [Compound 608]
< 50 nM | 250 to 1000 nM |  | CC1(C)C[C@@H](O)C[C@@H](c2ccc(S(=O)(=O)C(F)(F)F)c3c2CC(F)(F)[C@H]3O)C1 [Compound 550]
> 1000 nM | > 1000 nM |  | CC(C)(C#N)COc1ccc(S(C)(=O)=O)c2c1[C@@H](F)C(F)(F)[C@H]2O [Compound 752]
> 1000 nM | > 1000 nM |  | NC(=O)C1CCc2c(OCC(F)F)ccc(C(F)(F)F)c21 (centres unmarked) [Compound 692]
50 to 249 nM | > 1000 nM |  | O=C1CCc2c(Oc3cc(F)cc(Cl)c3)ccc(S(=O)(=O)C(F)F)c21 [Compound 18]
250 to 1000 nM | > 1000 nM |  | N#Cc1cc(F)cc(Oc2ccc(S(=N)(=O)C(F)(F)F)c3c2CCC3O)c1 (centres unmarked) [Compound 258]
50 to 249 nM | > 1000 nM |  | CC1(C)CC(c2ccc(S(=O)(=O)C(F)(F)F)c3c2CC(F)(F)[C@H]3O)=CC(O)C1 (some centres unmarked) [Compound 551]
50 to 249 nM | 250 to 1000 nM |  | O=S(=O)(c1ccc(Oc2cc(F)cc(Cl)c2)c(Br)c1/C=N/O)C(F)(F)F [Compound 107]
250 to 1000 nM | 250 to 1000 nM |  | N#CCC1(COc2ccc(S(=O)(=O)C(F)(F)F)c3c2CC(F)(F)[C@H]3O)COC1 [Compound 707]
250 to 1000 nM | 250 to 1000 nM |  | Cc1cc(Oc2cc(F)cc(C#N)c2)c2c(c1S(C)(=O)=O)C(O)C(F)(F)C2 (centres unmarked) [Compound 213]
